Data published in US20100120700A1, “METHODS AND COMPOSITIONS FOR TREATING CERVICAL CANCER” (priority 2000, published 2010).
pEC50: −log10 of the molar value. “Also recorded” adds a separate entry of the source.

Experiments:
[1] = test system: human PDZ domains; experiment: G assay, E6 PL peptides against PDZ domain panel; details: value names the PDZ domain(s) that saturated binding with the E6 peptide; signal classes (A450 nm 3-4 or 4)
Protocol: (1) A PDZ-domain polypeptide is bound to a surface, e.g. a protein binding surface. In a preferred embodiment, a GST/PDZ fusion protein containing one or more PDZ domains is bound to a polystyrene 96-well plate. […] In one embodiment, the GST/PDZ fusion protein is bound via an anti-GST antibody that is coated onto the 96-well plate. Adequate binding to the plate can be achieved when: • a. 100 uL per well of 5 ug/mL goat anti-GST polyclonal antibody (Pierce) in PBS is added to a polystyrene 96-well plate (e.g., Num Polysorb) at 4° C. for 12 hours. • b. The plate is blocked by addition of 200 uL per well of PBS/BSA for 2 hours at 4° C. • c. The plate is washed 3 times with PBS. • d. […]
(3) The binding of the biotinylated peptide to the GST/PDZ fusion protein surface can be detected using a variety of methods and detectors known to one of skill in the art. […] The reaction of the HRP and its substrate is terminated by addition of 100 uL per well of 1M sulfuric acid, and the absorbance of each well of the plate is read at 450 nm.
(4) Specific binding of a PL peptide and a PDZ domain polypeptide is determined by comparing the signal from the well(s) in which the PL peptide and PDZ domain polypeptide are combined, with the background signal(s). […]

[2] = biological target: DLG3 (PDZ1-2) (Homo sapiens, UniProt Q92796); details: E6 peptide titrated against constant GST-PDZ; DLG3 (1-2)
Protocol: (§1) (1) A GST/PDZ fusion protein, as well as GST alone as a negative control, are bound to a surface (e.g., a 96-well plate) and the surface blocked and washed as described supra for the “G” assay.
(§2) (2) 50 uL per well of a solution of biotinylated PL peptide (e.g. as shown in TABLE 2) is added to the surface in increasing concentrations in PBS/BSA (e.g. at 0.1 uM, 0.33 uM, 1 uM, 3.3 uM, 10 uM, 33 uM, and 100 uM). In one embodiment, the PL peptide is allowed to react with the bound GST/PDZ fusion protein (as well as the GST alone negative control) for 10 minutes at 4° C. followed by 20 minutes at 25° C. The plate is washed 3 times with ice cold PBS to remove unbound labeled peptide.
(§3) (3) The binding of the PL peptide to the immobilized PDZ-domain polypeptide is detected as described supra for the “G” assay.
(§4) (4) For each concentration of peptide, the net binding signal is determined by subtracting the binding of the peptide to GST alone from the binding of the peptide to the GST/PDZ fusion protein. The net binding signal is then plotted as a function of ligand concentration and the plot is fit (e.g. by using the Kaleidagraph software package curve fitting algorithm; Synergy Software) to the following equation, where “Signal[ligand]” is the net binding signal at PL peptide concentration “[ligand],” “Kd” is the apparent affinity of the binding event, and “Saturation Binding” is a constant determined by the curve fitting algorithm to optimize the fit to the experimental data: […]

[3] = biological target: PSD95 (PDZ1-3) (Homo sapiens, UniProt P78352); details: E6 peptide titrated against constant GST-PDZ; PSD95 (1-3)
Protocol: as §1, §2, §3, §4

[4] = biological target: PSD95 (PDZ2) (Homo sapiens, UniProt P78352); details: E6 peptide titrated against constant GST-PDZ; PSD95 (2)
Protocol: as §1, §2, §3, §4

[5] = test system: SAST1 KIAA; details: E6 peptide titrated against constant GST-PDZ
Protocol: as §1, §2, §3, §4

[6] = test system: SAST2; details: E6 peptide titrated against constant GST-PDZ; SAST2 (1)
Protocol: as §1, §2, §3, §4

[7] = biological target: SIP1 (PDZ1) (Homo sapiens, UniProt Q15599); details: E6 peptide titrated against constant GST-PDZ; SIP1 (1)
Protocol: as §1, §2, §3, §4

[8] = test system: VARTUL; details: E6 peptide titrated against constant GST-PDZ
Protocol: as §1, §2, §3, §4

[9] = biological target: T1, TIP1 (Homo sapiens, UniProt O14907); experiment: G assay peptide titration (EC50); format: binding; details: E6 peptide titrated against constant GST-PDZ
T1 construct: made in house; host or cells: E. coli (DH5alpha, BL21 or JM109)
T1 sequence (O14907 14-116): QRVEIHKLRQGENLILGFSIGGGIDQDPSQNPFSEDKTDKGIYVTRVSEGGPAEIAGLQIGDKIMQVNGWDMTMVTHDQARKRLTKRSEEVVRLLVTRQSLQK
Protocol: (4) For each concentration of peptide, the net binding signal is determined by subtracting the binding of the peptide to GST alone from the binding of the peptide to the GST/PDZ fusion protein. […]
Relative binding affinities for the 14 most significant interactions with different PDZ domains were determined by E6 peptide titrations.

DLG3 (PDZ1-2), sequence (Q92796 129-315 limits assumed): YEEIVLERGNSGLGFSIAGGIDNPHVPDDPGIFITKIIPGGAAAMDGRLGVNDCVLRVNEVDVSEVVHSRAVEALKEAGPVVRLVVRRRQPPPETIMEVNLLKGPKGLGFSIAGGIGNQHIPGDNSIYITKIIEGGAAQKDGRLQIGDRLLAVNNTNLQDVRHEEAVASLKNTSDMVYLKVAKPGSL
SIP1 (PDZ1), sequence (Q15599 with tags, fused parts or gaps): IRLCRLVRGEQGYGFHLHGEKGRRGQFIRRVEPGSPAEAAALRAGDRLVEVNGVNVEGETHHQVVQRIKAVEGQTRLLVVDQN

Substance: 20 mer peptide corresponding to the C-terminus of HPV16 E6 (PDZ ligand), biotinylated in binding assays; ends SSRTRRETQL (SEQ ID NO: 13) [HPV E6 #16]
- PDZ binding partner (signal 4 and 5 of 0-5) [1]: TIP-1; also recorded: Magi1 (PDZ #2)
- pEC50 [2]: 5.42
- pEC50 [3]: 6.00
- pEC50 [4]: 5.17
- pEC50 [5]: 6.24
- pEC50 [6]: 5.92
- pEC50 [7]: 5.12
- pEC50 [8]: 6.03
- pEC50 [9]: 6.12
